In data set [1] the target is T1, HCV polymerase (NS5B570n-Con1) (Hepatitis C virus genotype 1b, UniProt Q9WMX2).
T1 construct: a 21 amino acid C-terminal deletion of full-length HCV polymerase; made in house; host or cells: E. coli BL21(DE3) pLysS, plasmid pET17b
Kind of data set: biochemical. On the set-up: species or system HCV Con1 strain. Here is the method:
The enzymatic activity of HCV polymerase (NS5B570n-Con1) was measured as the incorporation of radiolabeled nucleotide monophosphates into acid insoluble RNA products. Unincorporated radiolabeled substrate was removed by filtration and scintillant was added to the washed and dried filter plate containing radiolabeled RNA product. The amount of RNA product generated by NS5B570n-Con1 at the end of the reaction was directly proportional to the amount of light emitted by the scintillant.
The HCV polymerase used in the enzymatic activity assay is a 21 amino acid C-terminal deletion of full-length HCV polymerase derived from HCV Con1 strain, genotype 1b (GenBank accession number AJ242654) (NS5B570n-Con1). The NS5B570n-Con1 was sub-cloned downstream to the T7 promoter of the plasmid expression construct pET17b and transformed into E. coli strain BL21(DE3) pLysS for protein expression. A single colony was used to start an innoculum for a 10 L culture in LB media supplemented with 100 μg/mL ampicillin at 37° C. Protein expression was induced by the addition of 0.25 mM isopropyl-β-D-thiogalactopyranoside (IPTG) when the optical density of the culture at […] was 0.8. Induction of protein expression was carried out at 30° C. for 16 h after which the cells were harvested by centrifugation. NS5B570n-Con1 was purified to homogeneity using a three-column purification protocol including subsequent column chromatography on Ni-NTA, SP-Sepharose HP and Superdex 75 resins.
Enzymatic reactions in the presence of cIRES RNA template (see section [0300]) contained 20 nM cIRES RNA, 20 nM NS5B570n-Con1 enzyme, 0.5 μCi of tritiated UTP (Perkin Elmer catalog no. TRK-412; specific activity: 30 to 60 Ci/mmol), 1 μM each ATP, CTP, and GTP, 40 mM Tris-HCl pH 8.0, 40 mM NaCl, 4 mM DTT (dithiothreitol), 4 mM MgCl2, 5 μl of compound serial diluted in DMSO, and nuclease-free water to a final reaction volume of 50 μl. Enzymatic reactions in the presence of 20 nM cIRES template, 20 nM NS5B570n-Con1 enzyme, 1 μCi of tritiated UTP (Perkin Elmer catalog no. TRK-412; specific activity: 30 to 60 Ci/mmol), 40 mM Tris-HCl pH 8.0, 40 mM NaCl, 4 mM DTT (dithiothreitol), 4 mM MgCl2, 5 μl of compound serial diluted in DMSO, and nuclease-free water to a final reaction volume of 50 μl. Reaction mixtures were assembled in 96-well filter plates (cat #MADVNOB, Millipore Co.) and incubated for 2 h at 30° C. Reactions were stopped by addition of 10% final (v/v) trichloroacetic acid and incubated for 40 min at 4° C. Reactions were filtered, washed with 8 reaction volumes of 10% (v/v) trichloroacetic acetic acid, 4 reaction volumes of 70% (v/v) ethanol, air dried, and 25 μl of scintillant (Microscint 20, Perkin-Elmer) was added to each reaction well.
Two RNA templates can be used to assay compounds described herein. The cIRES RNA template is 377 nucleotide long and consisting of a partial complementary sequence (36 nucleotides) of the core protein, followed by 341 nucleotide of the complementary sequence of the internal ribosome entry site. The poly A RNA template (GE Amersham catalog number 27-4110) was a homopolymeric RNA pre-annealed to a oligo(rU)16 primer at a molar ratio of 3-to-1 (primer-template). The cIRES template was used in the assay unless otherwise noted.
The amount of light emitted from the scintillant was converted to counts per minute (CPM) on a Topcount® plate reader (Perkin-Elmer, Energy Range: Low, Efficiency Mode Normal, Count Time: 1 min, Background Subtract: none, Cross talk reduction: Off).
Data was analyzed in Excel® (Microsoft®) and ActivityBase® (Idbs®). The reaction in the absence of enzyme was used to determine the background signal, which was subtracted from the enzymatic reactions. […] All data was expressed as a percentage of the positive control. The compound concentration at which the enzyme-catalyzed rate of RNA synthesis was reduced by 50% (IC50) was calculated by fitting

This passage reports IC50 and melting point results from US8067442B2, “Heterocyclic antiviral compounds” (Roche Palo Alto LLC, priority 2008, dated 2011).

The structures appear in SMILES notation. Where only a bound is given, the exact number is not on record here.

A word on the IC50: it is the concentration that inhibits the measured activity by half. Low values mean greater potency, high ones weaker potency. As usually defined, the melting point is the temperature of the solid-liquid transition.

Regarding `CC(C)(C)c1cc(-c2ccc[nH]c2=O)cc2c(-c3ccc(CN(CCO)S(C)(=O)=O)cc3)coc12` [Compound I-76, N-{4-[7-tert-Butyl-5-(2-oxo-1,2-dihydro-pyridin-3-yl)-benzofuran-3-yl]-benzyl}-N-(2-hydroxy-ethyl)-methanesulfonamide], the melting point is 222 to 224 °C. The same molecule showed an IC50 in data set [1] of 35 nM.
The matching figures for `CN(Cc1ccc(-c2coc3c(C(C)(C)C)cc(-c4ccc[nH]c4=O)cc23)cc1)S(C)(=O)=O` [Compound I-77]: 243 to 245 °C and 36 nM.
`CC(C)(C)c1cc(-c2ccc[nH]c2=O)cc2c(-c3ccc(NS(C)(=O)=O)cc3)coc12` [Compound I-79, N-{4-[7-tert-Butyl-5-(2-oxo-1,2-dihydro-pyridin-3-yl)-benzofuran-3-yl]-phenyl}-methanesulfonamide]: the melting point was in the range of 182 to 184 °C. Moreover, the half-inhibitory concentration (IC50) in data set [1] came to 27 nM.
Molecule `CC(=O)Nc1ccc(-c2coc3c(C(C)(C)C)cc(-c4ccc[nH]c4=O)cc23)cc1` [Compound I-80] gave a melting point of over 300 °C. The IC50 in data set [1] is 64 nM.
Regarding `CC(C)(C)c1cc(-c2ccc[nH]c2=O)cc2c(-c3cccc(CNS(C)(=O)=O)c3)coc12` [Compound I-81], the melting point is 130 to 133 °C. Also, the IC50 in data set [1] turned out to be 175 nM.
In the case of `CC(C)(C)c1cc(-c2ccc[nH]c2=O)cc2c(-c3cccc(NS(C)(=O)=O)c3)coc12` [Compound I-82, N-{3-[7-tert-Butyl-5-(2-oxo-1,2-dihydro-pyridin-3-yl)-benzofuran-3-yl]-phenyl}-methanesulfonamide], the melting point is 227 to 230 °C. In data set [1], half-maximal inhibition (IC50) was put at 113 nM.
The matching figures for `CC(C)(C)c1cc(-c2ccc[nH]c2=O)cc2c(C(=O)Nc3cccc(NS(C)(=O)=O)c3)coc12` [Compound I-83]: 290 to 291 °C and 201 nM.
For `CC(C)(C)c1cc(-c2ccc[nH]c2=O)cc2c(C(=O)Nc3nccs3)coc12` [Compound I-84] the same measures were over 300 °C and 357 nM.
`CC(C)(C)c1cc(-c2ccc[nH]c2=O)cc2c(C(=O)Nc3cccc(CNS(C)(=O)=O)c3)coc12` [Compound I-85]: the melting point is 237 to 239 °C. Further, the half-maximal inhibitory concentration (IC50) in data set [1] is 741 nM.
The matching figures for `CC(C)(C)c1cc(-c2ccc[nH]c2=O)cc2c(-c3ccc(C(N)=O)cc3)coc12` [Compound I-87]: 282 to 284 °C and 2 nM.
The matching figures for `CC(NS(C)(=O)=O)c1ccc(-c2coc3c(C(C)(C)C)cc(-c4ccc[nH]c4=O)cc23)cc1` (centres unmarked) [Compound I-88, N-(1-{4-[7-tert-Butyl-5-(2-oxo-1,2-dihydro-pyridin-3-yl)-benzofuran-3-yl]-phenyl}-ethyl)-methanesulfonamide]: 255 to 257 °C and 8 nM.
For the molecule `CC(C)(C)c1cc(-c2ccc[nH]c2=O)cc2c(-c3cnc(N)nc3)coc12` [Compound I-89], the melting point was over 300 °C. In data set [1], the IC50 amounted to 690 nM.
The matching figures for `Cc1ccc(-c2coc3c(C(C)(C)C)cc(-c4ccc[nH]c4=O)cc23)nc1` [Compound I-91, 3-[7-tert-Butyl-3-(5-methyl-pyridin-2-yl)-benzofuran-5-yl]-1H-pyridin-2-one]: 295 to 297 °C and 326 nM.
For the molecule `CC(C)(C)c1cc(-c2cc(F)c[nH]c2=O)cc2c(C(=O)N3CC[C@H](CNS(C)(=O)=O)C3)coc12` [Compound I-92], the melting point lay in the range of 296 to 298 °C. In data set [1], this molecule had an IC50 of 29 nM.
The matching figures for `CC(C)(C)c1cc(-c2ccc[nH]c2=O)cc2c(C(=O)N3CCC3)coc12` [Compound I-94]: over 300 °C and 148 nM.
For `CC(C)(C)c1cc(-c2ccc[nH]c2=O)cc2c(C(=O)N3CC(CO)C3)coc12` [Compound I-95] the same measures were 292 to 293 °C and 43 nM.
For `CC(C)(C)c1cc(-c2ccc[nH]c2=O)cc2c(-c3ccc(N)nc3)coc12` [Compound I-96, 3-[3-(6-Amino-pyridin-3-yl)-7-tert-butyl-benzofuran-5-yl]-1H-pyridin-2-one] the same measures were 255 to 257 °C and 47 nM.
The molecule `COCc1cc(CNS(C)(=O)=O)ccc1-c1coc2c(C(C)(C)C)cc(-c3ccc[nH]c3=O)cc12` [Compound I-97, N-{4-[7-tert-Butyl-5-(2-oxo-1,2-dihydro-pyridin-3-yl)-benzofuran-3-yl]-3-methoxymethyl-benzyl}-methanesulfonamide] returned a melting point of 128 to 130 °C. For the same molecule, the IC50 in data set [1] is 515 nM.
The matching figures for `Cc1ccc(-c2cc(C(C)(C)C)c3occ(C(=O)N4CC[C@H](CNS(C)(=O)=O)C4)c3c2)c(=O)[nH]1` [Compound I-98]: 178 to 180 °C and 16 nM.
The matching figures for `CC(C)(C)c1cc(-c2ccc[nH]c2=O)cc2c(C(=O)N3CCC(NS(C)(=O)=O)CC3)coc12` [Compound I-99]: 193 to 195 °C and 876 nM.
Molecule `CC(C)(C)c1cc(-c2ccc[nH]c2=O)cc2c(C(=O)N3CC(O)C3)coc12` [Compound I-102] yielded a melting point of 264 to 266 °C. In addition, inhibition in data set [1] was half-maximal at 135 nM (IC50).
In turn, `CN(CC1CCCN(C(=O)c2coc3c(C(C)(C)C)cc(-c4ccc[nH]c4=O)cc23)C1)S(C)(=O)=O` (centres unmarked) [Compound I-104] had a melting point of 155 to 157 °C. Also, in data set [1], the midpoint of inhibition, the IC50, lay at 20 nM.
For `CN(C[C@H]1CCN(C(=O)c2coc3c(C(C)(C)C)cc(-c4ccc[nH]c4=O)cc23)C1)S(C)(=O)=O` [Compound I-105, N-{(S)-1-[7-tert-Butyl-5-(2-oxo-1,2-dihydro-pyridin-3-yl)-benzofuran-3-carbonyl]-pyrrolidin-3-ylmethyl}-N-methyl-methanesulfonamide], the melting point fell in the range of 155 to 157 °C. In addition, in data set [1], the IC50 was determined as 25 nM.
The matching figures for `CCS(=O)(=O)NC[C@H]1CCN(C(=O)c2coc3c(C(C)(C)C)cc(-c4ccc[nH]c4=O)cc23)C1` [Compound I-106]: 240 to 242 °C and 17 nM.
The matching figures for `CC(C)(C)c1cc(-c2ccc[nH]c2=O)cc2c(C(=O)N3CC[C@H](CNS(=O)(=O)C4CC4)C3)coc12` [Compound I-107]: 158 to 160 °C and 17 nM.
The matching figures for `CC(C)S(=O)(=O)NC[C@H]1CCN(C(=O)c2coc3c(C(C)(C)C)cc(-c4ccc[nH]c4=O)cc23)C1` [Compound I-108]: 163 to 165 °C and 25 nM.
Molecule `Cn1cc(C(=O)N2CC[C@H](CNS(C)(=O)=O)C2)c2cc(-c3ccc[nH]c3=O)cc(C(C)(C)C)c21` [Compound I-111, N-{(S)-1-[7-tert-Butyl-1-methyl-5-(2-oxo-1,2-dihydro-pyridin-3-yl)-1H-indole-3-carbonyl]-pyrrolidin-3-ylmethyl}-methanesulfonamide] registered a melting point of 168 to 170 °C. In data set [1], this molecule showed an IC50 of 8 nM.
For `Cn1cc(C(N)=O)c2cc(-c3ccc[nH]c3=O)cc(C(C)(C)C)c21` [Compound I-112] the same measures were 232 to 234 °C and 778 nM.
